Structures can show the parent of a compound that is named as a salt. Numbered stars: 1 amine (or outer) side, 2 acyl side, 3 side chain; on linkers, the order of the positions; unused ones are H or OH. Bridge positions count the residues as written; N and C are the ends. Square brackets hold non-standard residues; d marks the D form. Peptide text beside a SMILES is read from it. * marks the point of attachment. ξ: configuration not given here. Acetyl(cis-4-NH-cyclohexyl) = O=C(C[C@H]1CC[C@@H](N[*:1])CC1)[*:2]; ξHexahydromandeloyl = O=C(C(O)C1CCCCC1)*; Cyclohexylacetyl = O=C(CC1CCCCC1)*; Thr(3ξ) = CC(O)[C@H](N)C(=O)O; Octanoyl = CCCCCCCC(=O)*; Dab = NCC[C@H](N)C(=O)O; X4 = NC1CCCC1C(=O)*
What was measured:
Assay in all cases: MIC, compound in combination with a second agent (broth microdilution)
Assay type in all cases: cell-based
Escherichia coli = settings: 1:1 (wt:wt) combination with Rifampicin
Method in brief: (§1)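 Susceptibility was tested on up to four strains of each pathogen with the compound paired 1:1 by weight alongside another antibacterial. Values count both components together and use the lower duplicate if replicates agreed within 2-fold.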

Acinetobacter baumannii = settings: 1:1 (wt:wt) combination with Rifampicin
Method in brief: as §1

Klebsiella pneumoniae = settings: for MIC K. pneumoniae ATCC 4352: strain ATCC 4352
Method in brief: as §1

Pseudomonas aeruginosa = settings: 1:1 (wt:wt) combination with Rifampicin
Method in brief: as §1

[1] = MIC = total drug concentration, strain ATCC25922
[2] = MIC = total drug concentration, strain NCTC9001
[3] = MIC = total drug concentration, strain ATCC BAA-747
[4] = MIC = total drug concentration, strain CCUG57249
[5] = MIC = total drug concentration, strain NCTC 13423
[6] = MIC = total drug concentration, strain NCTC 13424
[7] = 1:1 (wt:wt) combination with Rifampicin, MIC = total drug concentration, strain ATCC-BAA-2146
[8] = 1:1 (wt:wt) combination with Rifampicin, MIC = total drug concentration, strain CCUG-59348
[9] = MIC = total drug concentration, strain ATCC 27853
[10] = MIC = total drug concentration, strain ATCC CRM-9027
[11] = MIC = total drug concentration, strain ATCC-47
[12] = MIC = total drug concentration, strain CCUG 59626
[13] = 1:1 (wt:wt) combination with Rifampicin, MIC = total drug concentration
[14] = MIC is total drug concentration
[15] = 1:1 (wt:wt) combination with Rifampicin, MIC is total drug concentration
[16] = Ratio of Compound to Rifampicin 1:1, total drug concentration
[17] = Ratio of Compound to Rifampicin 1:3, total drug concentration
[18] = Ratio of Compound to Rifampicin 3:1, total drug concentration

CC(C)C[C@@H]1NC(=O)[C@@H](Cc2ccccc2)NC(=O)[C@H](CCN)NC(=O)[C@@H](NC(=O)[C@H](CCN)NC(=O)[C@@H](NC(=O)C[C@H]2CC[C@@H](N)CC2)C(C)O)CCNC(=O)[C@H](C(C)O)NC(=O)[C@H](CCN)NC(=O)[C@H](CCN)NC1=O (stereo partly drawn) [Example 36, Cis-2-(4-aminocyclohexane) ethanoyl polymyxin B nonapeptide, trifluoroacetate salt] ({Acetyl(cis-4-NH-cyclohexyl)}-[Thr(3ξ)][Dab][Dab][Dab][dF]L[Dab][Dab][Thr(3ξ)]; lactam 3-C)
MIC E. coli ATCC25922 (Escherichia coli; [1]): 0.25 micrograms/mL | MIC E. coli NCTC9001 (Escherichia coli; [2]): 0.125 micrograms/mL | MIC A. baumannii ATCC BAA-747 (Acinetobacter baumannii; [3]): 0.125 micrograms/mL | MIC A. baumannii CCUG57249 (Acinetobacter baumannii; [4]): 0.25 micrograms/mL | MIC A. baumannii NCTC 13423 (Acinetobacter baumannii; [5]): 0.125 micrograms/mL | MIC A. baumannii NCTC 13424 (Acinetobacter baumannii; [6]): 0.5 micrograms/mL | MIC K. pneumoniae ATCC-BAA-2146 (Klebsiella pneumoniae; [7]): 0.5 micrograms/mL | MIC K. pneumoniae CCUG-59348 (Klebsiella pneumoniae; [8]): 4 micrograms/mL | MIC K. pneumoniae NCTC 13438 (Klebsiella pneumoniae; 1:1 (wt:wt) combination with Rifampicin, MIC = total drug concentration, strain NCTC 13438): 1 micrograms/mL | MIC P. aeruginosa ATCC 27853 (Pseudomonas aeruginosa; [9]): 0.25 micrograms/mL | MIC P. aeruginosa ATCC CRM-9027 (Pseudomonas aeruginosa; [10]): 0.25 micrograms/mL | MIC P. aeruginosa ATCC-47 (Pseudomonas aeruginosa; [11]): 0.125 micrograms/mL | MIC P. aeruginosa CCUG 59626 (Pseudomonas aeruginosa; [12]): 0.25 micrograms/mL

CC(C)C[C@@H]1NC(=O)[C@@H](Cc2ccccc2)NC(=O)[C@H](CCN)NC(=O)[C@@H](NC(=O)[C@@H](CO)NC(=O)[C@@H](NC(=O)C2CCCC2N)C(C)O)CCNC(=O)[C@H](C(C)O)NC(=O)[C@H](CCN)NC(=O)[C@H](CCN)NC1=O (stereo partly drawn) [Example 44, [2-Amino-cyclopentane-carbonyl]-L-Thr-D-Ser-polymyxin B hepatapeptide, TFA salt] (X4-[Thr(3ξ)][dS][Dab][Dab][dF]L[Dab][Dab][Thr(3ξ)]; lactam 3-C)
MIC E. coli ATCC25922 (Escherichia coli; [1]): 0.125 micrograms/mL | MIC E. coli NCTC9001 (Escherichia coli; [2]): 0.5 micrograms/mL | MIC A. baumannii ATCC BAA-747 (Acinetobacter baumannii; [3]): 0.25 micrograms/mL | MIC A. baumannii CCUG57249 (Acinetobacter baumannii; [4]): 0.125 micrograms/mL | MIC A. baumannii NCTC 13423 (Acinetobacter baumannii; [5]): 0.125 micrograms/mL | MIC A. baumannii NCTC 13424 (Acinetobacter baumannii; [6]): 0.125 micrograms/mL | MIC K. pneumoniae ATCC 4352 (Klebsiella pneumoniae; [13]): 0.125 micrograms/mL | MIC K. pneumoniae ATCC-BAA-2146 (Klebsiella pneumoniae; [7]): 1 micrograms/mL | MIC K. pneumoniae CCUG-59348 (Klebsiella pneumoniae; [8]): 4 micrograms/mL | MIC P. aeruginosa ATCC 27853 (Pseudomonas aeruginosa; [9]): 0.5 micrograms/mL | MIC P. aeruginosa ATCC CRM-9027 (Pseudomonas aeruginosa; [10]): 0.5 micrograms/mL | MIC P. aeruginosa ATCC-47 (Pseudomonas aeruginosa; [11]): 1 micrograms/mL | MIC P. aeruginosa CCUG 59626 (Pseudomonas aeruginosa; [12]): 0.5 micrograms/mL

CC(C)C[C@@H]1NC(=O)[C@@H](Cc2ccccc2)NC(=O)[C@H](CCN)NC(=O)[C@@H](NC(=O)[C@@H](CO)NC(=O)[C@@H](NC(=O)C(O)C2CCCCC2)C(C)O)CCNC(=O)[C@H](C(C)O)NC(=O)[C@H](CCN)NC(=O)[C@H](CCN)NC1=O (stereo partly drawn) [Example 46, [2-cyclohexyl-2-hydroxyethanoyl]-L-Thr-D-Ser-polymyxin B heptapeptide, TFA salt] (ξHexahydromandeloyl-[Thr(3ξ)][dS][Dab][Dab][dF]L[Dab][Dab][Thr(3ξ)]; lactam 3-C)
MIC E. coli ATCC25922 (Escherichia coli; [1]): 0.125 micrograms/mL | MIC E. coli NCTC9001 (Escherichia coli; [2]): 0.25 micrograms/mL | MIC A. baumannii ATCC BAA-747 (Acinetobacter baumannii; [3]): ≤0.06 micrograms/mL | MIC A. baumannii CCUG57249 (Acinetobacter baumannii; [4]): 0.125 micrograms/mL | MIC A. baumannii NCTC 13423 (Acinetobacter baumannii; [5]): 0.125 micrograms/mL | MIC A. baumannii NCTC 13424 (Acinetobacter baumannii; [6]): ≤0.06 micrograms/mL | MIC K. pneumoniae ATCC 4352 (Klebsiella pneumoniae; [13]): 0.125 micrograms/mL | MIC K. pneumoniae ATCC-BAA-2146 (Klebsiella pneumoniae; [7]): 1 micrograms/mL | MIC K. pneumoniae CCUG-59348 (Klebsiella pneumoniae; [8]): 2 micrograms/mL | MIC P. aeruginosa ATCC 27853 (Pseudomonas aeruginosa; [9]): 1 micrograms/mL | MIC P. aeruginosa ATCC CRM-9027 (Pseudomonas aeruginosa; [10]): 1 micrograms/mL | MIC P. aeruginosa ATCC-47 (Pseudomonas aeruginosa; [11]): 2 micrograms/mL | MIC P. aeruginosa CCUG 59626 (Pseudomonas aeruginosa; [12]): 1 micrograms/mL

CCCCCCCC(=O)N[C@H](C(=O)N[C@H](CO)C(=O)N[C@H]1CCNC(=O)[C@H](C(C)O)NC(=O)[C@H](CCN)NC(=O)[C@H](CCN)NC(=O)[C@H](CC(C)C)NC(=O)[C@@H](Cc2ccccc2)NC(=O)[C@H](CCN)NC1=O)C(C)O (stereo partly drawn) [Example C1, NAB-739 TFA salt, reference compound] (Octanoyl-[Thr(3ξ)][dS][Dab][Dab][dF]L[Dab][Dab][Thr(3ξ)]; lactam 3-C)
MIC E. coli ATCC25922 (Escherichia coli; [1]): 0.5 micrograms/mL | MIC E. coli NCTC9001 (Escherichia coli; [2]): 1 micrograms/mL | MIC A. baumannii ATCC BAA-747 (Acinetobacter baumannii; [3]): 0.5 micrograms/mL | MIC A. baumannii CCUG57249 (Acinetobacter baumannii; [4]): 0.5 micrograms/mL | MIC A. baumannii NCTC 13423 (Acinetobacter baumannii; [5]): 0.5 micrograms/mL | MIC A. baumannii NCTC 13424 (Acinetobacter baumannii; [6]): 0.5 micrograms/mL | MIC K. pneumoniae ATCC 4352 (Klebsiella pneumoniae; [13]): 0.5 micrograms/mL | MIC K. pneumoniae ATCC-BAA-2146 (Klebsiella pneumoniae; [7]): 2 micrograms/mL | MIC K. pneumoniae CCUG-59348 (Klebsiella pneumoniae; [8]): 4 micrograms/mL | MIC P. aeruginosa ATCC 27853 (Pseudomonas aeruginosa; [9]): 2 micrograms/mL | MIC P. aeruginosa ATCC CRM-9027 (Pseudomonas aeruginosa; [10]): 2 micrograms/mL | MIC P. aeruginosa ATCC-47 (Pseudomonas aeruginosa; [11]): 4 micrograms/mL | MIC P. aeruginosa CCUG 59626 (Pseudomonas aeruginosa; [12]): 2 micrograms/mL

CC(C)C[C@@H]1NC(=O)[C@@H](Cc2ccccc2)NC(=O)[C@H](CCN)NC(=O)[C@@H](NC(=O)[C@H](CCN)NC(=O)[C@@H](NC(=O)CC2CCCCC2)C(C)O)CCNC(=O)[C@H](C(C)O)NC(=O)[C@H](CCN)NC(=O)[C@H](CCN)NC1=O (stereo partly drawn) [Example C4, Cyclohexyl ethanoyl polymyxin B nonapeptide, TFA salt, reference compound] (Cyclohexylacetyl-[Thr(3ξ)][Dab][Dab][Dab][dF]L[Dab][Dab][Thr(3ξ)]; lactam 3-C)
MIC E. coli ATCC25922 (Escherichia coli; [14]): 0.25 micrograms/mL | MIC E. coli NCTC9001 (Escherichia coli; [14]): 0.5 micrograms/mL | MIC A. baumannii ATCC BAA-747 (Acinetobacter baumannii; [14]): 0.25 micrograms/mL | MIC A. baumannii CCUG57249 (Acinetobacter baumannii; [14]): 0.25 micrograms/mL | MIC A. baumannii NCTC 13423 (Acinetobacter baumannii; [14]): 0.125 micrograms/mL | MIC A. baumannii NCTC 13424 (Acinetobacter baumannii; [14]): 0.25 micrograms/mL | MIC K. pneumoniae ATCC-BAA-2146 (Klebsiella pneumoniae; [15]): 1 micrograms/mL | MIC K. pneumoniae CCUG-59348 (Klebsiella pneumoniae; [15]): 2 micrograms/mL | MIC K. pneumoniae NCTC 13438 (Klebsiella pneumoniae; [15]): 0.5 micrograms/mL | MIC P. aeruginosa ATCC 27853 (Pseudomonas aeruginosa; [14]): 0.5 micrograms/mL | MIC P. aeruginosa ATCC CRM-9027 (Pseudomonas aeruginosa; [14]): 0.5 micrograms/mL | MIC P. aeruginosa ATCC-47 (Pseudomonas aeruginosa; [14]): 1 micrograms/mL | MIC P. aeruginosa CCUG 59626 (Pseudomonas aeruginosa; [14]): 0.25 micrograms/mL

Polymyxin B nonapeptide [PMBN, reference compound]
MIC E. coli ATCC25922 (Escherichia coli; [1]): 0.5 micrograms/mL | MIC E. coli NCTC9001 (Escherichia coli; [2]): 1 micrograms/mL | MIC A. baumannii ATCC BAA-747 (Acinetobacter baumannii; [3]): 0.25 micrograms/mL | MIC A. baumannii CCUG57249 (Acinetobacter baumannii; [4]): 1 micrograms/mL | MIC A. baumannii NCTC 13423 (Acinetobacter baumannii; [5]): 0.5 micrograms/mL | MIC A. baumannii NCTC 13424 (Acinetobacter baumannii; [6]): 0.5 micrograms/mL | MIC K. pneumoniae ATCC 4352 (Klebsiella pneumoniae; [13]): 0.25 micrograms/mL | MIC K. pneumoniae ATCC-BAA-2146 (Klebsiella pneumoniae; [7]): 1 micrograms/mL | MIC K. pneumoniae CCUG-59348 (Klebsiella pneumoniae; [8]): 4 micrograms/mL | MIC K. pneumoniae ATCC-BAA-2146 (Klebsiella pneumoniae; [16]): 2 micrograms/mL | MIC K. pneumoniae CCUG-59348 (Klebsiella pneumoniae; [16]): 4 micrograms/mL | MIC K. pneumoniae NCTC 13438 (Klebsiella pneumoniae; [16]): 2 micrograms/mL | MIC K. pneumoniae ATCC-BAA-2146 (Klebsiella pneumoniae; [17]): 2 micrograms/mL | MIC K. pneumoniae CCUG-59348 (Klebsiella pneumoniae; [17]): 4 micrograms/mL | MIC K. pneumoniae NCTC 13438 (Klebsiella pneumoniae; [17]): 2 micrograms/mL | MIC K. pneumoniae ATCC-BAA-2146 (Klebsiella pneumoniae; [18]): 2 micrograms/mL | MIC K. pneumoniae CCUG-59348 (Klebsiella pneumoniae; [18]): 8 micrograms/mL | MIC K. pneumoniae NCTC 13438 (Klebsiella pneumoniae; [18]): 2 micrograms/mL | MIC P. aeruginosa ATCC 27853 (Pseudomonas aeruginosa; [9]): 0.125 micrograms/mL | MIC P. aeruginosa ATCC CRM-9027 (Pseudomonas aeruginosa; [10]): 0.125 micrograms/mL | MIC P. aeruginosa ATCC-47 (Pseudomonas aeruginosa; [11]): 0.25 micrograms/mL | MIC P. aeruginosa CCUG 59626 (Pseudomonas aeruginosa; [12]): 0.125 micrograms/mL

Source: patent publication US10407467B2, “Polymyxin derivatives and their use in combination therapy together with different antibiotics” (priority 2013, dated 2019)
